Where two headings read alike, the source gives them in different places.
Experiments:
[1] = SHRP H-205.2 Test Method for Ice Melting of Liquid Deicing Chemicals; settings: 25° F. (−4° C.)
Experimental: Fraction E was also examined for ice melting characteristics at 25° F.

Rats = settings: cited from earlier work
[2] = calculated from data in SHRP H-205.2; cited from earlier work
[3] = aqueous solution
[4] = Freezing point of simple carbohydrates with 15% magnesium chloride; assay type: physicochemical; settings: 15% MgCl2
Experimental: There is available commercially a wide range of carbohydrates with varying carbohydrate compositions. An evaluation was conducted using simple sugars, disaccharides and polysaccharides in an attempt to determine the effect of molecular weight and solute concentration upon freezing point.

Row | SMILES | Oral LD 50 (Rats) (Rats) [mg/kg] | Lbs weight ice melted per lb weight of inorganic salt [2] [Lbs per lb] | also measured
1 | [Cl-].[Cl-].[Mg+2] [Mg Cl2, magnesium chloride] |  |  | Lbs weight ice melted per lb weight of inorganic salt [1]: 16.9 Lbs per lb
2 | CC(=O)[O-].[K+] [Potassium acetate, potassium acetate] | 3250 |  | 
3 | [Ca+2].[Cl-].[Cl-] [Ca Cl2, calcium chloride] |  | 7.3 | 
4 | CC(=O)[O-].[Na+] [Sodium acetate, sodium acetate] | 3550 |  | solids content at the eutectic point [3]: 23%
5 | OC[C@H]1O[C@@H](O[C@H]2[C@H](O)[C@@H](O)C(O)O[C@@H]2CO)[C@H](O)[C@@H](O)[C@H]1O (some centres unmarked) [Lactose] |  |  | comparison in reducing freezing point [4]: somewhat better than maltose
6 | [Cl-].[Na+] [Sodium Chloride, sodium chloride] | 3000 | 7.5 | 

Source: patent US6436310B1, “Deicing solution” (Sears Petroleum & Transport Corporation, priority 1998, dated 2002)
